Reference: paper PMC7217877, “N-AS-triggered SPMs are direct regulators of microglia in a model of Alzheimer’s disease” (Nature Communications, 2020)
Several values for one entry are separate records, joined by “and”; a condition that tells them apart may be missing. Equal entries are not always repeated.

System: APP/PS1 mice
Assay: Iba1+ microglia and GFAP+ astrocyte quantification in cortex (Fig 6h,i)
Type: in vivo, mouse
Experimental: Thioflavin S (Sigma-Aldrich) staining was carried out according to previously described procedures. We used 6E10 (mouse, 1:100, Signet, SIG39300), anti-20G10 (mouse, 1:1000, provided by D. R. Howlett, GlaxoSmithKline, Harlow, Essex, UK) for Aβ42, anti-G30 (rabbit, 1:1000, provided by D. R. Howlett) for Aβ40, SMA (mouse, 1:400, Sigma-Aldrich, A2547), AT8 (mouse, 1:500, Thermo Fisher Scientific, MN1020), Caspase-3 (mouse, 1:200, Novus Biologicals, NB100-56708), ac-S565 (rabbit, 1:100), COX2 (mouse, 1:250, Thermo Fisher Scientific, 35-8200), Iba1 (rabbit, 1:500, Wako, 019-19941 and goat, Abcam, ab5076), NeuN (mouse, 1:500, Millipore, MAB177), GFAP (rabbit, 1:500, Dako, N1506 and chicken, 1:500, Abcam, ab4674), and Lamp1 (mouse, 1:200, Abcam, ab24170). The sections were analyzed with a laser-scanning confocal microscope (FV3000; Olympus) or with a BX51 microscope (Olympus). MetaMorph software (Molecular Devices) was used to quantification. Three-dimensional reconstruction of microglia was recorded and analyzed using IMARIS software (Bitplane)[11]. For the analysis of age-dependent microglial COX2^+ CX3CR1^+ cells in WT and APP/PS1 mice, COX2 (rabbit, 1:100, Abcam, ab15191) and CX3CR1 (mouse, 1:100, BioLegend, 149008) antibody were used and the images were acquired on Alexa 488 and APC Channel with performed using Operetta CLS and Analysis Software 4.5 (Perkin-Elmer).
Transgenic mouse lines over-expressing the hAPP695swe (APP) and presenilin-1M146V (PS1) mutations were originated from GlaxoSmithKline (Harlow, UK)[32] and maintained as described previously. We purchased 5×FAD mice from Jackson Labs (Stock number. 34840-JAX). Because APP/PS1 and 5xFAD mice show sex differences in disease progression, we used only male mice. To examine possible therapeutic effect of N-AS and aspirin in APP/PS1 mice, the N-AS (30 mg kg^−1, Sigma-Aldrich, 01912) was injected daily s.c. for 8 weeks to 7-months-old APP/PS1 mice until the age of 9 months, and aspirin (2 mg kg^−1, Sigma-Aldrich, A5376)[33] was administrated orally to 7-months-old APP/PS1 mice for 8 weeks. […]

[1] = APP/PS1 + N-AS, individual animals

CCCCCCCCCCCCC/C=C/[C@@H](O)[C@H](CO)NC(C)=O [N-AS, N-((2S,3R,E)-1,3-Dihydroxyoctadec-4-en-2-yl)acetamide]
GFAP+ astrocyte quantification (Figure 6i) [1]: 2.9 and 1.684 and 2.972 and 1.386 and 1.661 and 0.8495 and 1.293 and 1.379 | Iba1+ microglia quantification (Figure 6h) [1]: 0.2355 and 0.191 and 0.3245 and 0.8739 and 0.8648 and 0.875 and 0.5574 and 0.579 and 0.4301 | inflammatory response (Iba1+ microglia, GFAP+ astrocyte) (N-AS vs vehicle APP/PS1): improved
